Laboratory results: patent publication US20080115236A1, “CBG gene as a genetic marker of hypercortisolism and associated pathologies” (Institut National de la Recherche Agronomique (INRA), a …, priority 2001, published 2008)
Like-named read-outs stand apart in the source and are kept apart here.

Target: T1, CBG (corticosteroid-binding globulin, transcortin) (Sus scrofa, UniProt Q9GK37)
T1 construct: quantity of cortisol specifically fixed to the glycoproteins adsorbed on the gel; from tissue; host or cells: pig blood plasma (Large White and Meishan, n = 12 each)
T1 sequence (Q9GK37 23-406): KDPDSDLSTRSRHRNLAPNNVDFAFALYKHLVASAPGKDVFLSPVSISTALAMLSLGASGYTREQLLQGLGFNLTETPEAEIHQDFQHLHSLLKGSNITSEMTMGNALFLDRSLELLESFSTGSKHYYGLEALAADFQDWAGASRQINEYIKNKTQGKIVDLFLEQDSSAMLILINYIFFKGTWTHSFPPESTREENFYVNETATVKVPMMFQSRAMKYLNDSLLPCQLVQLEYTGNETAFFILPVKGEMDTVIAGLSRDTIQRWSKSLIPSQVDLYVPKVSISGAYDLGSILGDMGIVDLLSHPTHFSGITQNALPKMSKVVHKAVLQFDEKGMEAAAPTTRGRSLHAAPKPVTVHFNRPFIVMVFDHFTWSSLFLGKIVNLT
Test: solid phase fixation (radiobinding) test of cortisol binding to plasma CBG, Concavalin A-Sepharose, Scatchard analysis
Parameters: species or system pig
Conditions: n = 12, plasma CBG, 4° C., read-out: Kd (affinity of CBG for cortisol)
Procedure: The binding capacity of CBG and its affinity for cortisol were measured at 4° C. by a solid phase fixation test using a Concavalin A-Sepharose column (Pugeat et al., 1984). The association equilibrium constant (Ka) and the capacity of CBG for cortisol were calculated by a Scatchard analysis using “bound” as the quantity of cortisol specifically fixed to the glycoproteins adsorbed on the gel and “free” as the concentration of cortisol in the aqueous phase.
At the protein level, the capacity of binding to cortisol and the affinity constant of CBG were compared between the LW and Meishan pigs by radiobinding studies. No difference in affinity was found between the two breeds of pigs.

Q: `C[C@]12CCC(=O)C=C1CC[C@@H]1[C@@H]2[C@@H](O)C[C@@]2(C)[C@H]1CC[C@]2(O)C(=O)CO` [cortisol] was tested. Which Kd (Large White pigs) did it give?
A: Its Kd is 0.38 ± 0.05 nM.

Q: What about the Kd (Meishan pigs) of the same compound?
A: Its Kd is 0.46 ± 0.05 nM.
